Measurements reported in PubChem BioAssay AID248 (DTP/NCI, 2004).
Toxic doses and inconclusive results are not listed. Cut-off read from the data, not from the text of the source: active = T/C of 150% or more; inactive = T/C below 125%.

Tested on: L1210 leukemia ip in BDF1 mice, survival T/C
Assay: NCI In Vivo Anticancer Drug Screen. Data for tumor model L1210 Leukemia (intraperitoneal) in B6D2F1 (BDF1) mice
Conditions: higher = longer survival
Summary of the method: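 Survival endpoint. Drug-treated group vs vehicle group, expressed as T divided by C. Tumor passaged by transplantation.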

[1] = endpoint: mean survival time, dose: 100.0 mg/kg/injection, schedule: Q04DX003 (ip), vehicle: saline with Tween-80
[2] = endpoint: mean survival time, dose: 200.0 mg/kg/injection, schedule: Q04DX003 (ip), vehicle: saline with Tween-80
[3] = endpoint: mean survival time, dose: 400.0 mg/kg/injection, schedule: Q04DX003 (ip), vehicle: saline with Tween-80

Measured: T/C

O=c1[nH]c2c(cnn2-c2ccccc2)c(=O)n1OS(=O)(=O)c1ccccc1
inactive: endpoint: mean survival time, dose: 50.0 mg/kg/injection, schedule: Q01DX001 (ip), vehicle: saline 103 % of control | endpoint: mean survival time, dose: 100.0 mg/kg/injection, schedule: Q01DX001 (ip), vehicle: saline 103 % of control | endpoint: mean survival time, dose: 200.0 mg/kg/injection, schedule: Q01DX001 (ip), vehicle: saline 100 % of control | endpoint: mean survival time, dose: 400.0 mg/kg/injection, schedule: Q01DX001 (ip), vehicle: saline 97 % of control

O=C(Nc1cccc(C(=O)O)c1)Nc1ccc(Cl)c(C(F)(F)F)c1
inactive: endpoint: mean survival time, dose: 100.0 mg/kg/injection, schedule: Q01DX009 (ip), vehicle: saline with Tween-80 87 % of control | endpoint: mean survival time, dose: 200.0 mg/kg/injection, schedule: Q01DX009 (ip), vehicle: saline with Tween-80 100 % of control

c1ccc(-c2nc3ccccc3nc2-c2ccccc2)cc1
inactive: endpoint: mean survival time, dose: 100.0 mg/kg/injection, schedule: Q04DX003 (ip), vehicle: Klucel (hydroxypropylcellulose) (HPC) 96 % of control | [1] 100 % of control | endpoint: mean survival time, dose: 200.0 mg/kg/injection, schedule: Q04DX003 (ip), vehicle: Klucel (hydroxypropylcellulose) (HPC) 86 % of control | [2] 100 % of control | endpoint: mean survival time, dose: 400.0 mg/kg/injection, schedule: Q04DX003 (ip), vehicle: Klucel (hydroxypropylcellulose) (HPC) 90 % of control | [3] 100 % of control

Cn1c(=O)c2c(nc(CCC3CCCC3)n2C)n(C)c1=O
inactive: endpoint: mean survival time, dose: 50.0 mg/kg/injection, schedule: Q01DX001 (ip), vehicle: carboxymethylcellulose (CMC) 92 % of control | endpoint: mean survival time, dose: 100.0 mg/kg/injection, schedule: Q01DX001 (ip), vehicle: carboxymethylcellulose (CMC) 97 % of control | endpoint: mean survival time, dose: 200.0 mg/kg/injection, schedule: Q01DX001 (ip), vehicle: carboxymethylcellulose (CMC) 90 % of control | endpoint: mean survival time, dose: 400.0 mg/kg/injection, schedule: Q01DX001 (ip), vehicle: carboxymethylcellulose (CMC) 97 % of control

CSc1ncnc2c1ncn2N1CCCC1
inactive: endpoint: mean survival time, dose: 75.0 mg/kg/injection, schedule: Q01DX001 (ip), vehicle: other 101 % of control | endpoint: mean survival time, dose: 150.0 mg/kg/injection, schedule: Q01DX001 (ip), vehicle: other 97 % of control | endpoint: mean survival time, dose: 300.0 mg/kg/injection, schedule: Q01DX001 (ip), vehicle: other 98 % of control

COc1ccc(OC)c(NC(=O)Nc2ccc(O)cc2)c1
inactive: [1] 98 % of control | [2] 98 % of control | [3] 93 % of control

O=C(c1ccc([N+](=O)[O-])cc1)N1CC1Cc1ccccc1 (stereo not given)
inactive: endpoint: mean survival time, dose: 100.0 mg/kg/injection, schedule: Q01DX001 (ip), vehicle: Klucel (hydroxypropylcellulose) (HPC) 89 % of control | endpoint: mean survival time, dose: 200.0 mg/kg/injection, schedule: Q01DX001 (ip), vehicle: Klucel (hydroxypropylcellulose) (HPC) 89 % of control

O=S1(=O)CC2(N3CCCCC3)CCCCC21 (stereo not given)
inactive: endpoint: mean survival time, dose: 5.0 mg/kg/injection, schedule: Q01DX009 (ip), vehicle: saline 94 % of control | endpoint: mean survival time, dose: 10.0 mg/kg/injection, schedule: Q01DX009 (ip), vehicle: saline 96 % of control

C(=NCCN=Cc1ccccc1)c1ccccc1
inactive: [1] 101 % of control | [2] 95 % of control | [3] 111 % of control

COc1cc([C@@H]2c3cc4c(c(O)c3C[C@H]3COC(=O)[C@@H]32)OCO4)cc(OC)c1O
inactive: endpoint: mean survival time, dose: 0.06 mg/kg/injection, schedule: Q01DX Z (ip), vehicle: saline 100 % of control | endpoint: mean survival time, dose: 0.12 mg/kg/injection, schedule: Q01DX Z (ip), vehicle: saline 100 % of control | endpoint: mean survival time, dose: 0.2 mg/kg/injection, schedule: Q01DX001 (ip), vehicle: carboxymethylcellulose (CMC) 119 % of control | endpoint: mean survival time, dose: 0.25 mg/kg/injection, schedule: Q01DX Z (ip), vehicle: saline 100 % of control | endpoint: mean survival time, dose: 0.5 mg/kg/injection, schedule: Q01DX001 (ip), vehicle: carboxymethylcellulose (CMC) 107 % of control | endpoint: mean survival time, dose: 0.5 mg/kg/injection, schedule: Q01DX Z (ip), vehicle: saline 100 % of control | endpoint: mean survival time, dose: 1.0 mg/kg/injection, schedule: Q01DX001 (ip), vehicle: carboxymethylcellulose (CMC) 107 % of control | endpoint: mean survival time, dose: 2.0 mg/kg/injection, schedule: Q01DX001 (ip), vehicle: carboxymethylcellulose (CMC) 111 % of control | endpoint: mean survival time, dose: 3.6 mg/kg/injection, schedule: Q01DX001 (ip), vehicle: carboxymethylcellulose (CMC) 103 % of control | endpoint: mean survival time, dose: 4.0 mg/kg/injection, schedule: Q01DX001 (ip), vehicle: carboxymethylcellulose (CMC) 119 % of control | endpoint: mean survival time, dose: 5.3 mg/kg/injection, schedule: Q01DX001 (ip), vehicle: carboxymethylcellulose (CMC) 108 % of control | endpoint: mean survival time, dose: 8.0 mg/kg/injection, schedule: Q01DX001 (ip), vehicle: carboxymethylcellulose (CMC) 113 % of control | endpoint: median survival time, dose: 0.06 mg/kg/injection, schedule: Q01DX009 (ip), vehicle: Klucel (hydroxypropylcellulose) (HPC) 100 % of control | endpoint: median survival time, dose: 0.12 mg/kg/injection, schedule: Q01DX009 (ip), vehicle: Klucel (hydroxypropylcellulose) (HPC) 100 % of control | endpoint: median survival time, dose: 0.25 mg/kg/injection, schedule: Q01DX009 (ip), vehicle: Klucel (hydroxypropylcellulose) (HPC) 100 % of control | endpoint: median survival time, dose: 0.5 mg/kg/injection, schedule: Q01DX009 (ip), vehicle: Klucel (hydroxypropylcellulose) (HPC) 111 % of control
